Several values for one entry are separate records, joined by “and”; a condition that tells them apart may be missing. Equal entries are not always repeated.
Assays:
Bgp = Bgp (Borrelia burgdorferi, UniProt Q9F952); assay: UV spectrophotometric MTN activity and kinetics assay, Bgp; format: biochemical; settings: pH 7, mean ± SEM; for Km: substrate kinetics
MtnN = MtnN (Borrelia burgdorferi, UniProt O50860); assay: UV spectrophotometric MTN activity and kinetics assay, MtnN; format: biochemical; settings: pH 7, mean ± SEM; for Km: substrate kinetics
Pfs = Pfs (Borrelia burgdorferi, UniProt O50162); assay: UV spectrophotometric MTN activity and kinetics assay, Pfs; format: biochemical; settings: pH 5, mean ± SEM; for Km: substrate kinetics
[1] = system: B. burgdorferi strain N40; assay: BacTiter-Glo bioluminescent cell viability assay; format: cell-based, Borrelia burgdorferi; settings: Borreliella burgdorferi, N40, 24 h, read-out: IC50 (cell viability)
Plasmodium falciparum = settings: purine-less cell death in malarial cultures; cited from earlier work
[2] = system: C[C@H]1O[C@@H](n2cnc3c(N)ncnc32)[C@H](O)[C@@H]1O; assay: UV spectrophotometric MTN activity and kinetics assay, Bgp; format: biochemical, Borrelia burgdorferi; settings: other: Bgp, substrate kinetics, pH 7, mean ± SEM
Trichomonas vaginalis = settings: cultured parasites; cited from earlier work
[3] = substrate: C[C@H]1O[C@@H](n2cnc3c(N)ncnc32)[C@H](O)[C@@H]1O; assay: UV spectrophotometric MTN activity and kinetics assay, MtnN; format: biochemical, Borrelia burgdorferi; settings: other: MtnN, substrate kinetics, pH 7, mean ± SEM
[4] = substrate: C[C@H]1O[C@@H](n2cnc3c(N)ncnc32)[C@H](O)[C@@H]1O; assay: UV spectrophotometric MTN activity and kinetics assay, Pfs; format: biochemical, Borrelia burgdorferi; settings: other: Pfs, substrate kinetics, pH 5, mean ± SEM

**Q.** For `Nc1ncnc2c1ncn2[C@@H]1O[C@H](CSCC[C@H](N)C(=O)O)[C@@H](O)[C@H]1O` [SAH, S-adenosylhomocysteine], which kcat (Bgp) is on record?
**A.** Its kcat is 1.75 ± 0.2 s⁻¹.

**Q.** And the Km (Bgp)?
**A.** The Km was 1.96 ± 0.67 µM.

**Q.** And the kcat (MtnN)?
**A.** Its kcat is 0.55 ± 0.017 s⁻¹.

**Q.** And the Km (MtnN)?
**A.** The Km was 2.04 ± 0.44 µM.

**Q.** And the kcat (Pfs)?
**A.** Its kcat is 1.57 ± 0.083 s⁻¹.

**Q.** And the Km (Pfs)?
**A.** Its Km is 0.75 ± 0.16 µM.

**Q.** With `CC1(C)S[C@@H]2[C@H](NC(=O)[C@H](N)c3ccccc3)C(=O)N2[C@H]1C(=O)O` [ampicillin] as the molecule, how does the IC50 [1] read?
**A.** The IC50 was 1.07 µg/mL and 3.01 µM.

**Q.** With `Nc1ncnc2c(C3N[C@H](CO)[C@@H](O)[C@H]3O)c[nH]c12` (some centres unmarked) [Immucillin-A (ImmA), Immucillin-A] as the molecule, how does the IC50 (Plasmodium falciparum) read?
**A.** Its IC50 is 35 nM.

**Q.** For Bgp (Borreliella burgdorferi), which Km [2] is on record?
**A.** The Km was 1.79 ± 0.52 µM.

**Q.** And the kcat [2]?
**A.** Its kcat is 1.53 ± 0.467 s⁻¹.

**Q.** And the kcat/Km [2]?
**A.** The kcat/Km was 850000 ± 267000 M⁻¹ s⁻¹.

**Q.** Which IC50 (Trichomonas vaginalis) does the source give for `Nc1nc(F)nc2c1ncn2[C@H]1C[C@H](O)[C@@H](CO)O1` [2-fluoro-2’-deoxyadenosine] here?
**A.** The IC50 was 106 nM.

**Q.** With `CCCCSCC1CN(Cc2c[nH]c3c(N)ncnc23)CC1O` (centres unmarked) [BuT-DADMe-ImmA, 1-[(9-deazaadenin-9-yl)methyl]-3-hydroxy-4-(butylthiomethyl)pyrrolidine] as the molecule, how does the IC50 [1] read?
**A.** Its IC50 is 0.38 µg/mL and ~100 nM.

**Q.** With 5’-methylthioadenosine [MTA] as the molecule, how does the kcat (Bgp) read?
**A.** The kcat was 1.85 ± 0.333 s⁻¹.

**Q.** And the Km (Bgp)?
**A.** Its Km is 0.49 ± 0.01 µM.

**Q.** And the kcat (MtnN)?
**A.** Its kcat is 1.55 ± 0.083 s⁻¹.

**Q.** And the Km (MtnN)?
**A.** The Km was 9.1 µM and 9.09 µM.

**Q.** And the kcat (Pfs)?
**A.** Its kcat is 1.78 ± 0.05 s⁻¹.

**Q.** And the Km (Pfs)?
**A.** The Km was 0.61 ± 0.16 µM.

**Q.** With `CSCC1CN(Cc2c[nH]c3c(N)ncnc23)CC1O` (centres unmarked) [MT-DADMe-ImmA, 1-[(9-deazaadenin-9-yl)methyl]-3-hydroxy-4-(methylthiomethyl) pyrrolidine] as the molecule, how does the IC50 [1] read?
**A.** Its IC50 is 0.31 µg/mL and ~100 nM.

B1: MtnN (Borreliella burgdorferi B31) (protein)
chain: NESKINTPNENSQSNILIISATKAEIEEINKIIQNKKYISIEEHRRKKKIAIGKLMDHNIITIATGVGKINTALWTSYIISKYKISHIINAGVASGIYSDKNKFIKIGDVVISTETTSYDFDLHRFGYEIGHVPEHPKKFKANTALIRKTSKIKINNITSYMGLIITGDQFIDHQTFQEIPEEFENAIAIDMESAAMAQVAYGFKIPFIIIRGISDIVNNENNYDDYKKFLKKASSSSAKIVENLIKLM
**Q.** With B1 as the molecule, how does the Km [3] read?
**A.** Its Km is 10.5 µM and 10.46 ± 0.75 µM.

**Q.** What about the kcat [3] of the same molecule?
**A.** The kcat was 0.733 ± 0.0167 s⁻¹.

**Q.** What about the kcat/Km [3] of the same molecule?
**A.** Its kcat/Km is 66700 ± 5000 M⁻¹ s⁻¹.

B2: Pfs (Borreliella burgdorferi B31) (protein)
chain: MILIISAMQEESEEINKILDNKEEIVLNDYLENKKIYKGKILGKDVISLTTGIGKVNAATWSSQIISKYKITHIINSGSSGGIKENSNLKILDIIVSSETAYYDFDLTKFGHKIGQVPNLPQKFKADEELLKKVANIVDNKLLNIDIHIGLILTGDQFVDNEKNLETIKKNFKDALAVDMEGAAIAQVAHIFKIPFIIIRSISDLPNNKDNHIDFNKFLKTSSINSSKMTKELIRLI
**Q.** Which results are given for B2?
**A.** Km [4]: 1.37 ± 0.37 µM; kcat [4]: 2.7 ± 0.15 s⁻¹; kcat/Km [4]: 1.97e+06 ± 400000 M⁻¹ s⁻¹

— publication PMC6881558 (Biochimica et biophysica acta. General subjects, 2019)
